# Test results published in patent EP2411506B1, “TUMOR SUPPRESSION USING HUMAN PLACENTA-DERIVED INTERMEDIATE NATURAL KILLER CELLS AND IMMUNOMODULATORY COMPOUNDS” (Celularity, Inc., priority 2009, dated 2010).
# What was measured:
# NK cells = assay: Flow cytometry of GZMB-positive NK cells after pomalidomide treatment; format: cell-based, human; conditions: increase vs untreated
# cultured PINK cells = assay: qRT-PCR gene expression analysis of lenalidomide- and pomalidomide-treated cultured PINK cells; format: cell-based, human; conditions: for expression of GM-CSF, increase: treated PINK cells vs untreated
# Source text: RNA isolation and purification.
# Quantitative real-time (qRT-PCR) analysis.
# placental NK cells = assay: Luminex (Five-Plex Antibody Kit) of GM-CSF and TNF-α secretion from treated NK cells; conditions: treated cultured NK cells compared to controls
# Experimental: Secretion of GM-CSF and TNF-α was evaluated by Luminex utilizing a Five-Plex Antibody Kit.
# [1] = system: day 21 cultivated placental NK cells; assay: ELISA of perforin and granzyme B secretion from treated NK cells; format: cell-based, human; conditions: treated day 21 cultivated placental NK cells compared to controls
# Experimental: In a separate experiment, secretion of perforin and granzyme B from pomalidomide- or lenalidomide-treated day 21 cultivated placental NK cells was evaluated by ELISA.
# [2] = treated vs untreated cultured PINK cells (Veh = 1)
# [3] = treated vs untreated cultured PINK cells (Veh = 1.01)
Structure (SMILES),"expression of GM-CSF, increase (cultured PINK cells; qRT-PCR)",Fold change of gene expression: BAX (cultured PINK cells; [2]),Fold change of gene expression: CCL5 (cultured PINK cells; [2]),Fold change of gene expression: CCR5 (cultured PINK cells; [2]),Fold change of gene expression: CD8A (cultured PINK cells; [2]),Fold change of gene expression: CD68 (cultured PINK cells; [2]),Fold change of gene expression: CSF2 (cultured PINK cells; [2]),Fold change of gene expression: FAS (cultured PINK cells; [2]),Fold change of gene expression: GUSB (cultured PINK cells; [2]),Fold change of gene expression: IL2RA (cultured PINK cells; [2]),increase in GM-CSF secretion (placental NK cells),increase in TNF-α secretion (placental NK cells),increase in granzyme B secretion [1],increase in perforin secretion [1],other results
"Nc1cccc2c1C(=O)N(C1CCC(=O)NC1=O)C2=O (racemic) [pomalidomide, 4-amino-2-[(3RS)-2,6-dioxopiperidin-3-yl)-1H-isoindole-1,3(2H)-dione]",396% ± 0.3%,2.23,1.78,0.68,2.39,8.74,3.96,1.34,1.76,1.58,357%,147%,69%,121%,"increased percentage of GZMB-positive NK cells (NK cells): 25%; increased granzyme B (GZMB) gene expression (cultured PINK cells; increase vs untreated, qRT-PCR): 60% ± 1.7%; Fold change of gene expression: ACTB (cultured PINK cells; [2]): 0.77; Fold change of gene expression: CCL2 (cultured PINK cells; [2]): 5.46; Fold change of gene expression: CCL3 (cultured PINK cells; [2]): 2.2; Fold change of gene expression: CD80 (cultured PINK cells; [2]): 1.59; Fold change of gene expression: CSF1 (cultured PINK cells; [2]): 1.41; Fold change of gene expression: ECE1 (cultured PINK cells; [2]): 1.56; Fold change of gene expression: GZMB (cultured PINK cells; [2]): 1.59; Fold change of gene expression: IL8 (cultured PINK cells; [2]): 1.62; Fold change of gene expression: LTA (cultured PINK cells; [2]): 2.88; Fold change of gene expression: PRF1 (cultured PINK cells; [2]): 1.17; Fold change of gene expression: PTGS2 (cultured PINK cells; [2]): 1.68; Fold change of gene expression: SKI (cultured PINK cells; [2]): 1.96; Fold change of gene expression: GNLY (cultured PINK cells; [3]): 1.96; Fold change of gene expression: IL1A (cultured PINK cells; [3]): 2.61; Fold change of gene expression: TBX21 (cultured PINK cells; [3]): 2.05; Fold change of gene expression: IL10 (cultured PINK cells; treated vs untreated cultured PINK cells (Veh = 1.02)): 1.52"
"Nc1cccc2c1CN(C1CCC(=O)NC1=O)C2=O (centres unmarked) [lenalidomide, 3-(4'aminoisoindoline-1'-one)-1-piperidine-2,6-dione]",232% ± 1.6%,1.39,1.24,0.9,1.3,4.04,2.32,1.11,1.13,1.26,166%,76%,113%,86%,Fold change of gene expression: TNFRSF18 (cultured PINK cells; [2]): 0.7
